Test results reported in patent US20240108645A1, “SENESCENCE AND SENESCENCE ASSOCIATED SECRETORY PHENOTYPE” (Metro Biotech NSW Pty Ltd, priority 2013, published 2024).
Entries after “also recorded” stand apart in the source; their conditions may differ.

Assays:
NAMPT = NAMPT (Homo sapiens, UniProt P43490); settings: in vitro; Wang et al. (2014) Cell; cited from earlier work
[1] = tested on: senescence associated β-galactosidase; assay: Senescence associated β-galactosidase staining of epididymal adipose tissue whole mounts; assay type: in vivo, C57BL6 mice
Experimental: 18 month old C57BL6 mice were treated with or without […] intraperitoneal apigenin for 7 days. Epidydimal adipose tissue whole mounts were obtained from the mice and stained for expression of senescence associated β-galactosidase according to the chromogenic protocol of Debacq-Chainiaux F et al., Protocols to Detect Senescence-associated beta-galactosidase (SA-betagal) activity, a biomarker of senescent cells in culture and in vivo, Nature Protocols 2009; 4(12): 1798-1806. Cells that have undergone cellular senescence express β-galactosidase and stain blue (which can be seen as a darker grey in FIG. 1A).

[2] = tested on: senescence associated secretory proteins and cell cycle markers (mRNA); assay: Quantitative RTPCR of senescence marker mRNA in epidymal adipose tissue; assay type: in vivo, C57BL6 mice; settings: chow or high fat feed supplemented with 500 mg/kg apigenin
Experimental: C57BL6 mice were fed chow, chow supplemented with 500 mg/kg apigenin, high fat feed or high fat feed supplemented with 500 mg/kg apigenin for 6 months. At 6 months, mRNA expression levels of senescence associated secretory proteins was determined in epidymal adipose tissue using quantitative RTPCR. At 12 months, mRNA expression levels of cell cycle markers was determined in epidymal adipose tissue using quantitative RTPCR.

p16^INK4A = assay: Doxorubicin-induced senescence in p16^LUC mice, bioluminescence/CT imaging; assay type: in vivo; settings: doxorubicin 1 mg/kg i.p. + apigenin 500 mg/kg of food from 4 days before; vs doxorubicin alone
Experimental: Vehicle control: 10% DMSO in PBS administered intraperitoneally; • 2. Apigenin: administered in diet at 500 mg/kg of food in addition to vehicle control administered i.p.; • 3. […] Apigenin administered in chow diet at 500 mg/kg of food, and doxorubicin administered at 1 mg/kg body weight i.p. Apigenin was administered 4 days prior to administration of doxorubicin. The animals were subjected to bioluminescence/CT imaging (Spectrum-CT instrument, PerkinElmer) as a readout for senescence 24 hours after treatment was completed. Areas of luminescence are shown as lightened areas in FIG. 5 and are indicated by an arrow.

C2C12 myoblasts [3] = assay: SA-β-Gal activity in C2C12 myoblasts by flow cytometry with C12FDG; assay type: cell-based
Experimental: To determine the ability of NAD^+ agonists to prevent or reduce senescence associated with treatment with corticoids, C2C12 myoblasts were assayed for SA-β-Gal activity following contact with vehicle, NMN, apigenin, dexamethasone, dexamethasone and NMN, and dexamethasone and apigenin. SA-β-Gal activity was determined using the fluorogenic substrate, C12FDG, by flow cytometry (protocol of Debacq-Chainiaux et al. Nature Protocols 2009). FIG. 7A: […] FIGS. 7B and 7C: […] SA-β-Gal activity was decreased with NMN and/or apigenin. All data are presented as the mean value. * p<0.05, **** p<0.0001, using two-way ANOVA multiple comparisons test.

3T3-L1 adipocytes [4] = assay: SA-β-gal chromogenic staining of dexamethasone treated 3T3-L1 adipocytes; assay type: cell-based; settings: 5 days; dexamethasone 1, 0.5, 0.1 or 0.01 mg/ml; 1 mM NMN, 25 mM apigenin
Experimental: To further investigate the effects of NAD^+ agonists on dexamethasone induced senescence, 3T3-L1 adipocytes were treated for 5 days with ethanol (control), or 1 mg/ml, 0.5 mg/ml, 0.1 mg/ml or 0.01 mg/ml of dexamethasone in combination with either DMSA, 1 mM NMN, 25 mM apigenin, or 1 mM NMN and 25 mM apigenin and subjected to senescence associated beta-galactosidase staining according to the chromogenic protocol of Debacq-Chainiaux F et al Nature Protocols 2009.

3T3-L1 adipocytes [5] = assay: Intracellular lipid content (oil red o) of 3T3-L1 adipocytes treated with antiretroviral agents; settings: apigenin 25 μM; cells treated 24 hr with 30 μM AZT, Efavirenz, Lopinavir, Ritonavir
Experimental: The ability of NAD^+ agonists to reduce or prevent lipodystrophy associated with anti-retroviral compounds was assessed. The ability of NMN to prevent or reduce lipodystrophy was tested by determining the lipid content of 3T3-L1 adipocytes treated with a vehicle, or the antiretroviral agent stavudine, either alone or in combination with NMN.
3T3-L1 adipocytes were treated for 24 hr with the HIV antiretroviral compound stavudine (10 nM) in the presence or absence of NMN (1 mM). Intracellular lipid content was assessed using oil red o staining, which was quantified by reading absorbance at 544 nm. Error bars: SD.
In order to further test the ability of NAD^+ agonists to reduce lipodystrophy associated with antiretroviral agents, 3T3-L1 adipocytes were treated for 24 hr with various antiretroviral compounds (30 μM) in the presence or absence of NMN (1 mM) or apigenin (25 μM). Intracellular lipid content was assessed using oil red o staining, which was quantified by reading absorbance at 544 nm.

[6] = Body weight after whole body γ-irradiation; assay type: in vivo, female C57BL6 mice; settings: 500cGy whole body γ-irradiation; apigenin 500 mg/kg feed; 20 days post-irradiation
Experimental: In order to assess the affects of an NAD^+ agonist on the effects of radiation, female C57BL6 (3-4 months old) were exposed to a single dose (500cGy) of whole body γ-irradiation or no irradiation (control). Mice were then maintained on chow diet with or without the addition of the NAD^+ raising compound apigenin to diet (500 mg/kg feed). The weight of the mice was determined at various time points for 20 days post-irradiation.

C2C12 myoblasts [7] = assay: SA-β-Gal staining of C2C12 myoblasts incubated with various agents; assay type: cell-based
Experimental: The ability of NAD^+ agonists to reduce senescence associated with various agents was tested by inclubating C2C12 myoblasts with various agents in the presence or absence of NMN or apigenin, and the cells subsequent stained as mentioned above for SA-β-Gal activity. The following agents were tested: [table]

[8] = Body weight after doxorubicin; assay type: in vivo, male C57BL6 mice; settings: doxorubicin 10 mg/kg i.p. + apigenin 500 mg/kg of diet from 8 days before
Experimental: Vehicle control: 10% DMSO in PBS administered intraperitoneally; • 2. Apigenin: administered in diet at 500 mg/kg of diet, in addition to vehicle control administered i.p.; • 3. […] Apigenin administered in diet of 500 mg/kg of diet, and doxorubicin administered at 10 mg/kg body weight i.p. Apigenin was administered 8 days prior to administration of a single dose of doxorubicin. Body weight was assessed during the course of the experiment as a read-out of general health and malaise, the results of which are shown in FIG. 11.

CD38 = target: T1, CD38 (Homo sapiens, UniProt P28907); settings: in vitro; Esande et al. (2013) Diabetes; cited from earlier work
T1 sequence (P28907 1-300): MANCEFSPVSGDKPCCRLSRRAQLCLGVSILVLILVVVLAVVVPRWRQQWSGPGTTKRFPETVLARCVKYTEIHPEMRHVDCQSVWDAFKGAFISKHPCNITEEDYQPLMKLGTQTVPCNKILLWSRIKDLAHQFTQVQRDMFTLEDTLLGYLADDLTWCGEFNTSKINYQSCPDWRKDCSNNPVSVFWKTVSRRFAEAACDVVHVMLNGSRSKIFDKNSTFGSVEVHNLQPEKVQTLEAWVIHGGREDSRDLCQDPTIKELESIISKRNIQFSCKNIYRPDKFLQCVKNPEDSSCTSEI

Sequence of NAMPT (P43490 whole entry, species assumed): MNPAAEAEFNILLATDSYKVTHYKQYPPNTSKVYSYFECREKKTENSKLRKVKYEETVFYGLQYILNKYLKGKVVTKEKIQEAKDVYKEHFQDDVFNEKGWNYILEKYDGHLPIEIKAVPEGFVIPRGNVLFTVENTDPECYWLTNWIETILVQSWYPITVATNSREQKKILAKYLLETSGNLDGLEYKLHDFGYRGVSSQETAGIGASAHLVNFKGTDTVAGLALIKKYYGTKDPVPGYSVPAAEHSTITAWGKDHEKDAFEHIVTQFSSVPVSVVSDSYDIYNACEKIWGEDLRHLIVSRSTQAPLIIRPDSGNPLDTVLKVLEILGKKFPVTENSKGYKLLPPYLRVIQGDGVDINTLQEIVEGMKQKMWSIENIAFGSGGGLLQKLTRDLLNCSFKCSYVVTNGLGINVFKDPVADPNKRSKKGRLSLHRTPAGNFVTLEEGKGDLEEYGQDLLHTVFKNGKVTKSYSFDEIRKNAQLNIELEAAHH

Structure (SMILES): OC(CNc1ccccc1)Cn1c2ccc(Br)cc2c2cc(Br)ccc21 (stereo not drawn) [P7C3]
- activity of NAMPT (NAMPT): enhances activity of NAMPT in vitro

Structure (SMILES): O=c1cc(-c2ccc(O)cc2)oc2cc(O)cc(O)c12 [apigenin, 5,7-dihydroxy-2-(4-hydroxyphenyl)-4H-1-benzopyran-4-one]
- SA-β-gal staining of adipose tissue (FIG. 1B) ([1]; 3 and 18 month old mice fed chow or chow supplemented with apigenin): little or no staining
- senescence associated β-galactosidase staining of adipose tissue (FIG. 1A) ([1]; 18 month old mice, 100 mg/day intraperitoneal apigenin for 7 days / chow supplemented daily with 100 mg/kg apigenin, vs chow fed control, 100 mg/kg): less compared to chow fed mice; also recorded: significantly less senescence-associated β-galactosidase expression
- mRNA expression of senescence associated secretory proteins (FIG. 2) ([2]; 6 months): significant reduction in expression of senescence markers
- mRNA expression of cell cycle markers (FIG. 3) ([2]; 12 months): significant reduction in expression of senescence markers
- p16^INK4A induction (bioluminescence) (p16^INK4A): little or no signs of p16^INK4A induction
- SA-β-Gal activity (FIG. 7B) (C2C12 myoblasts [3]; 72 hours, dexamethasone sodium phosphate 250 nM or PBS, NMN 1 mM or apigenin 25 uM): decreased
- SA-β-Gal activity (FIG. 7C) (C2C12 myoblasts [3]; 96 hours, dexamethasone sodium phosphate 250 nM or PBS, NMN 1 mM or apigenin 25 uM): decreased
- percentage of cells which exhibited SA-β-Gal activity following treatment with dexamethasone (C2C12 myoblasts [3]; summary of FIGS. 7A-7C): reduced the percentage of cells which exhibited SA-β-Gal activity
- SA-β-gal staining (blue cells), dexamethasone induced senescence (3T3-L1 adipocytes [4]): reduce or prevent senescence induced by dexamethasone
- lipodystrophy (intracellular lipid content, oil red o) (3T3-L1 adipocytes [5]): reduced lipodystrophy
- body weight after irradiation [6]: prevented this weight loss
- extent of senescence (proportion of cells stained blue, SA-β-Gal activity) (C2C12 myoblasts [7]; agents of the table of b212 with vs without apigenin or NMN): reduce the extent of senescence induced by the agents tested
- extent to which the cells undergo senescence (C2C12 myoblasts [7]; co-administration with AZT, 3TC, zalcitabine, efavirenze, lopinavir, ritonavir, nevirapine, tipranavir, tenofovir, invirase vs agent alone): reduces the extent to which the cells undergo senescence
- extent to which the cells undergo senescence (C2C12 myoblasts [7]; co-administration with PPARγ agonist rosiglitazone vs rosiglitazone alone): reduces the extent to which the cells undergo senescence
- extent to which the cells undergo senescence (C2C12 myoblasts [7]; co-administration with antiprotozoal agent quinacrine vs quinacrine alone): reduces the extent to which the cells undergo senescence
- extent to which the cells undergo senescence (C2C12 myoblasts [7]; co-administration with each of the chemotherapeutic agents listed in b109 vs agent alone): reduces the extent to which the cells undergo senescence
- extent to which the cells undergo senescence (C2C12 myoblasts [7]; co-administration with xanthine oxidase inhibitor allopurinol vs allopurinol alone): reduces the extent to which the cells undergo senescence
- extent to which the cells undergo senescence (C2C12 myoblasts [7]; co-administration with zolendronate vs zolendronate alone): reduces the extent to which the cells undergo senescence
- body weight [8]: rescue in body weight to a degree similar to non-doxorubicin treated animals
- inhibition of CD38 activity (CD38): inhibitors of CD38 activity in vitro
